Test results as given in patent US20240208954A1, “OXADIAZOLE COMPOUND, PREPARATION METHOD THEREFOR, PHARMACEUTICAL COMPOSITION AND USE THEREOF” (SHANGHAI INSTITUTE OF MATERIA MEDICA, CHINESE ACADEMY OF …, priority 2020, published 2024).
“And” between values parts separate entries of the source, which are not always exact repeats. Equal entries are not always repeated. Where two headings read alike, the source gives them in different places.

Columns and labels:
[1] = Preliminary assessment of pharmacokinetics in mice; format: in vivo, CD-1 mice; settings: for concentration at 0.75 h / concentration at 2 h / concentration at 4 h / concentration at 8 h / concentration at 24 h / concentration at 0.05 h / concentration at 0.25 h: male, CD-1, mouse, plasma, read-out: Concentration of A1 Drug in Plasma of Mice
Experimental: Dosing Regimen 9 CD-1 mice, male, weighing 20-26 g, were randomly divided into 3 groups with 3 mice in each group. The test compounds were administered intragastric, intravenously or intraperitoneally according to the following protocol. The mice were fasted for 12 h before the test and drank water freely. Food was consumed uniformly 2 h after administration. [table] The intragastric administration solution was prepared with DMSO/0.5% HPMC(5/95, v/v) to the final concentration. Intravenous and intraperitoneal administration solution was formulated with DMSO/PEG300/EtOH/NaCl(5/40/5/50, v/v/v). The sample of the administration solution was left (50 μL of the solution was mixed with 50 μL of DMSO before and after the administration, respectively) for test. The drug was given according to the above dose, the time of administration was recorded, and 20 μL of blood was taken from the femoral plexus of mice at the above set time points and placed in heparinized tubes. The blood was immediately centrifuged at 11000 rpm for 5 min. 10 μL of plasma was immediately and accurately sucked into a centrifuge tube prefilled with 100 μL of PK-IS solution (prepared with methanol: acetonitrile (1:1,v/v)), well mixed, and freezed at −20° C. for test.

[2] = system: S1P receptor; experiment: Subtype selectivity study of compound A1, overall statement; format: cell-based; settings: especially for S1P1 and S1P5 subtypes
Experimental: The S1P receptor selectivity was tested for different subtypes using the method described in Experimental Example 1.

CC(C)Oc1ccc(-c2nc(-c3ccc(CN4CC(C(=O)O)C4)c4ccccc34)no2)cc1C#N.Cl [Compound A1, 1-((4-(5-(3-cyano-4-isopropoxyphenyl)-1,2,4-oxadiazol-3-yl)naphthalen-1-yl)methyl) azetidine-3-carboxylic acid hydrochloric acid]
concentration at 0.75 h ([1]; ip, 20 mg/kg, intraperitoneal injection 20 mg/kg, 0.75 h, mean): 2020 ng/mL
concentration at 2 h ([1]; ip, 20 mg/kg, intraperitoneal injection 20 mg/kg, 2.00 h, mean): 2120 ng/mL
concentration at 4 h ([1]; ip, 20 mg/kg, intraperitoneal injection 20 mg/kg, 4.00 h, mean): 370 ng/mL
concentration at 8 h ([1]; ip, 20 mg/kg, intraperitoneal injection 20 mg/kg, 8.00 h, mean): 157 ng/mL
concentration at 24 h ([1]; ip, 20 mg/kg, intraperitoneal injection 20 mg/kg, 24.0 h, mean): 49.5 ng/mL
concentration at 0.05 h ([1]; po, 2 mg/kg, title: oral 2 mg/kg, 0.05 h, individual animals 4-6): 1790 ng/mL
concentration at 0.05 h ([1]; po, 2 mg/kg, title: oral 2 mg/kg, 0.05 h, mean): 1940 ng/mL
concentration at 0.25 h ([1]; po, 2 mg/kg, title: oral 2 mg/kg, 0.25 h, individual animals 4-6): 1040 ng/mL
concentration at 0.25 h ([1]; po, 2 mg/kg, title: oral 2 mg/kg, 0.25 h, mean): 878 ng/mL
concentration at 0.75 h ([1]; po, 2 mg/kg, title: oral 2 mg/kg, 0.75 h, individual animals 4-6): 178 ng/mL
concentration at 0.75 h ([1]; po, 2 mg/kg, title: oral 2 mg/kg, 0.75 h, mean): 169 ng/mL
concentration at 2 h ([1]; po, 2 mg/kg, title: oral 2 mg/kg, 2.00 h, individual animals 4-6): 49.2 ng/mL
concentration at 2 h ([1]; po, 2 mg/kg, title: oral 2 mg/kg, 2.00 h, mean): 49.8 ng/mL
concentration at 4 h ([1]; po, 2 mg/kg, title: oral 2 mg/kg, 4.00 h, mean): 8.43 ng/mL
concentration at 8 h ([1]; po, 2 mg/kg, title: oral 2 mg/kg, 8.00 h, mean): 3.97 ng/mL
concentration at 24 h ([1]; po, 2 mg/kg, title: oral 2 mg/kg, 24.0 h, individual animals 4-6): 0.5 ng/mL
concentration at 24 h ([1]; po, 2 mg/kg, title: oral 2 mg/kg, 24.0 h, mean): 0.6 ng/mL
Concentration of A1 Drug in Plasma of Mice ([1]; title: intraperitoneal 20 mg/kg, 0.25 h, individual animals 1-3): 1095 ng/mL and 1070 ng/mL and 3041 ng/mL
Concentration of A1 Drug in Plasma of Mice ([1]; title: intraperitoneal 20 mg/kg, 0.50 h, individual animals 1-3): 1574 ng/mL and 1388 ng/mL and 3514 ng/mL
Concentration of A1 Drug in Plasma of Mice ([1]; title: intraperitoneal 20 mg/kg, 1.00 h, individual animals 1-3): 1914 ng/mL and 1843 ng/mL and 4055 ng/mL
Concentration of A1 Drug in Plasma of Mice ([1]; title: intraperitoneal 20 mg/kg, 2.00 h, individual animals 1-3): 571 ng/mL and 1318 ng/mL and 1662 ng/mL
Concentration of A1 Drug in Plasma of Mice ([1]; title: intraperitoneal 20 mg/kg, 4.00 h, individual animals 1-3): 146 ng/mL and 215 ng/mL and 65.0 ng/mL
Concentration of A1 Drug in Plasma of Mice ([1]; title: intraperitoneal 20 mg/kg, 8.00 h, individual animals 1-3): 25.8 ng/mL and 36.4 ng/mL and 11.5 ng/mL
Concentration of A1 Drug in Plasma of Mice ([1]; title: intraperitoneal 20 mg/kg, 24.0 h, individual animals 1-3): 3.80 ng/mL
Concentration of A1 Drug in Plasma of Mice ([1]; title: oral 2 mg/kg, 0.05 h, individual animals 4-6, 2 mg/kg): 1521 ng/mL and 2513 ng/mL
Concentration of A1 Drug in Plasma of Mice ([1]; title: oral 2 mg/kg, 0.25 h, individual animals 4-6, 2 mg/kg): 572 ng/mL and 1021 ng/mL
Concentration of A1 Drug in Plasma of Mice ([1]; title: oral 2 mg/kg, 0.75 h, individual animals 4-6, 2 mg/kg): 113 ng/mL and 216 ng/mL
Concentration of A1 Drug in Plasma of Mice ([1]; title: oral 2 mg/kg, 2.00 h, individual animals 4-6, 2 mg/kg): 39.5 ng/mL and 60.6 ng/mL
Concentration of A1 Drug in Plasma of Mice ([1]; title: oral 2 mg/kg, 4.00 h, individual animals 4-6, 2 mg/kg): 8.60 ng/mL and 11.5 ng/mL and 5.20 ng/mL
Concentration of A1 Drug in Plasma of Mice ([1]; title: oral 2 mg/kg, 8.00 h, individual animals 4-6, 2 mg/kg): 8.70 ng/mL and 2.10 ng/mL and 1.10 ng/mL
Concentration of A1 Drug in Plasma of Mice ([1]; title: oral 2 mg/kg, 24.0 h, individual animals 4-6, 2 mg/kg): 0.800 ng/mL and 0.500 ng/mL
selectivity for different S1P receptor subtypes [2]: good selectivity
